Relative viability data for one cell line are collected here from the supplement of paper PMC10307832.

Holding throughout (assay): relative viability (nuclei count vs DMSO), 5 days (fraction); higher = more cells survive
Compound in experiment [1]: Cc1ccccc1C(C(=O)NC1CCCCC1)N(C(=O)Cn1ccnc1C)c1cccc(F)c1 [IDH-C35] + CC(=O)Nc1cccc(-n2c(=O)n(C3CC3)c(=O)c3c(Nc4ccc(I)cc4F)n(C)c(=O)c(C)c32)c1 [Trametinib] (partner 0.02 µM)
In a few lines: (§1)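 Five library-drug doses in √10 steps were combined with a fixed anchor-drug dose, or a single drug was given alone, by pin tool to lung cancer cell lines in 1536-well plates the day after seeding. Nuclei were stained and counted after 5 days. Relative viability is the nuclei count in treated wells over that in vehicle wells, taken as the median of duplicate plates.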

Compound in experiment [2]: Cc1ccccc1C(C(=O)NC1CCCCC1)N(C(=O)Cn1ccnc1C)c1cccc(F)c1 [IDH-C35] + N=C(N)NC(=N)NCCc1ccccc1 [Phenformin] (partner 250 µM)
In a few lines:
as §1

Compound in experiment [3]: CC1=C(C(=NN1)C)CC2=C(C3=C(S2)N(C(=O)N(C3=O)C)CC(C)C)C(=O)N4C[C@@H](CO4)O + O=C(c1cc(Cc2n[nH]c(=O)c3ccccc23)ccc1F)N1CCN(C(=O)C2CC2)CC1 [Olaparib] (partner 8 µM)
Put shortly: as §1

Compound in experiment [4]: CC1=C(C(=NN1)C)CC2=C(C3=C(S2)N(C(=O)N(C3=O)C)CC(C)C)C(=O)N4C[C@@H](CO4)O + C[C@]1(O)C[C@@H](c2nc(-c3ccc4ccc(-c5ccccc5)nc4c3)c3c(N)nccn32)C1 [Linsitinib] (partner 1 µM)
Put shortly: as §1

For UMC-11, the relative viability worked out at 0.738 in experiment [1] (first compound 0.08 µM); 0.761 in experiment [1] (first compound 0.253 µM); 0.617 in experiment [1] (first compound 0.8 µM); 0.685 in experiment [1] (first compound 2.53 µM); 0.772 in experiment [1] (first compound 8 µM); 0.317 in experiment [2] (first compound 0.08 µM). In addition, the relative viability in experiment [2] (first compound 0.253 µM) stood at 0.337; in experiment [2] (first compound 0.8 µM) it was 0.33; in experiment [2] (first compound 2.53 µM), 0.313; in experiment [2] (first compound 8 µM), 0.291; in experiment [3] (first compound 0.0025 µM) it was 0.386; in experiment [3] (first compound 0.007906 µM), 0.358. Further, the relative viability in experiment [3] (first compound 0.025 µM) came out at 0.383; in experiment [3] (first compound 0.07906 µM), 0.456; in experiment [3] (first compound 0.25 µM), 0.957; in experiment [4] (first compound 0.0025 µM), 1.01; in experiment [4] (first compound 0.007906 µM), 1; in experiment [4] (first compound 0.025 µM) it was 0.845. In addition, the relative viability in experiment [4] (first compound 0.07906 µM) was determined as 0.793; in experiment [4] (first compound 0.25 µM) it was 0.767.
